Assay results from patent US7135466B2 (Kirin Beer Kabushiki Kaisha, priority 1999, dated 2006).

Legend:
PDGF-Ra = target: T1, PDGF-Ra (Homo sapiens, UniProt P16234); experiment: Inhibitory activity against PDGF-Ra phosphorylation by PDGF-AA stimulation using G292; format: cell-based; conditions: for IC50: Pharmacological Test Example 1, > means inhibition at indicated concentration not more than 50%, < and << not less than 50%, read-out: PDGF (E) IC50; for inhibition at 0.1 µM: G292, figure in parentheses in >100( ), at 100 nM, read-out: PDGF (E) inhibition (%) at 100 nM
T1 construct: host or cells: G-292 human osteosarcoma cells
How it was run: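 Human osteosarcoma G-292, 0.1% FBS o/n; cpd (DMSO) 1 h 37 °C; PDGF-AA 50 ng/ml 5 min; lyse 20 min RT; PY-20 capture 4 °C o/n; anti-PDGF-Ra + HRP-GAR; OD450.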

c-kit = target: T2, c-kit (Homo sapiens, UniProt P10721); experiment: Inhibitory activity against c-kit autophosphorylation (MO7e cells, h-SCF); format: cell-based; conditions: for IC50: MO7e cells, h-SCF 50 ng/ml, read-out: c-kit IC50; for inhibition at 1 µM: Mo7e, figure in parentheses in −( ), at 1000 nM
T2 construct: MO7e (human megakaryocytic leukemia cell line) which had been arrested for 20 hr; endogenous in cells; host or cells: MO7e human megakaryocytic leukemia cell line
How it was run: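 MO7e human megakaryocytic leukemia cells, arrested 20 hr, treated with compound 1 hr, then stimulated with 50 ng/ml h-SCF for 5 min and lysed. Lysates captured on immobilized anti-phosphotyrosine antibody, detected with anti-c-kit primary and HRP secondary antibody; absorbance at 450 nm.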

T1 sequence (P16234 24-1089): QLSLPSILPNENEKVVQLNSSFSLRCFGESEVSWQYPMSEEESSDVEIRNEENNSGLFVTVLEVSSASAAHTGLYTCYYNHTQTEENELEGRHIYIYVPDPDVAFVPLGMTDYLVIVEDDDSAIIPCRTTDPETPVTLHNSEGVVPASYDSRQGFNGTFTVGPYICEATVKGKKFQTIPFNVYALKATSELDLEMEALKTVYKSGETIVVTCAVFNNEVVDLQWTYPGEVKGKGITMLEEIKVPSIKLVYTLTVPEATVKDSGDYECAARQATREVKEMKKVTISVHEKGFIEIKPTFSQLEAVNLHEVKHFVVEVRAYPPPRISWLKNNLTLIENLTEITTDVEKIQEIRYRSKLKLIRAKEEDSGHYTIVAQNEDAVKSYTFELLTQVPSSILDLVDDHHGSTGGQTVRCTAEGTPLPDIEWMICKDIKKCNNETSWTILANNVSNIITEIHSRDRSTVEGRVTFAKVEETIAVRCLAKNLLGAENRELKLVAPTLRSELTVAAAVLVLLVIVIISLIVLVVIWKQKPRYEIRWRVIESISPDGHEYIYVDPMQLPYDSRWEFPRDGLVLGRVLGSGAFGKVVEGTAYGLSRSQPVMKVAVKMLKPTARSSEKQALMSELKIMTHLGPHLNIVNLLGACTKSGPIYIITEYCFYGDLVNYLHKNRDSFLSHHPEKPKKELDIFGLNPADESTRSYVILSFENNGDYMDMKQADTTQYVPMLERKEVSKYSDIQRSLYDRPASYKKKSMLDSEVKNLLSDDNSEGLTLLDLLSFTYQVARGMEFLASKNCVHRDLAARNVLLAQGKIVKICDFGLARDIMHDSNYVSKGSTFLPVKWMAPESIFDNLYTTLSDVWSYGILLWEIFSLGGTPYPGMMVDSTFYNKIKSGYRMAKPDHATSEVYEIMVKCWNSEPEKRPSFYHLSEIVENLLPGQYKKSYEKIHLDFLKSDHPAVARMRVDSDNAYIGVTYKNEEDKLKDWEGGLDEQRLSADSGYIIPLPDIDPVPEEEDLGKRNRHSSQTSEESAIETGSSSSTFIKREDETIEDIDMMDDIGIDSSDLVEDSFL
T2 sequence (P10721 26-976): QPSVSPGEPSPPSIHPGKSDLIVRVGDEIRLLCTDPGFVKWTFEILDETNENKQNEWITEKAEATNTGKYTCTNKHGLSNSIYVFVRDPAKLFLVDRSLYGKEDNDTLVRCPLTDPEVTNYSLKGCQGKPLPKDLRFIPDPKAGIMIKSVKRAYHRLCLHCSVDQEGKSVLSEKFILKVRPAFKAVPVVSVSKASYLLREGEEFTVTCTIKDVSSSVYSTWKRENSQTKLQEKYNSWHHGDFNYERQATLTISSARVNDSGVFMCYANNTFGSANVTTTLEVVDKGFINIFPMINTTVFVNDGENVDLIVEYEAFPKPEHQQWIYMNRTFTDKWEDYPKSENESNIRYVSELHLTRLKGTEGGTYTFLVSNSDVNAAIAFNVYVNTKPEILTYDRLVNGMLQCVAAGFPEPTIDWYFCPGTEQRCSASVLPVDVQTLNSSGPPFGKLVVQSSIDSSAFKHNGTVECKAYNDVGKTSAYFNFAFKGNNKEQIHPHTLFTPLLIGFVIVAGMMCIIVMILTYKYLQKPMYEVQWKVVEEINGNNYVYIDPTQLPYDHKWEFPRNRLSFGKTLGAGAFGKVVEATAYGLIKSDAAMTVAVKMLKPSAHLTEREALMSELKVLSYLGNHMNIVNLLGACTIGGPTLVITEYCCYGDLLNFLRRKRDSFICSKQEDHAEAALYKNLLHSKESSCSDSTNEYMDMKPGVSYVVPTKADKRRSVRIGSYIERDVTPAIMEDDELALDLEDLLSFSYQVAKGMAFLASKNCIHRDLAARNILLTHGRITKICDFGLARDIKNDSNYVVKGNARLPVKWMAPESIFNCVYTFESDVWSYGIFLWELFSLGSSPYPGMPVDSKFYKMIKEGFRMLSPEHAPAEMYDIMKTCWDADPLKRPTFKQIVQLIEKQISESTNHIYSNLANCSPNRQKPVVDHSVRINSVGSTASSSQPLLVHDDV

Compound	IC50 (PDGF-Ra)	IC50 (c-kit)	inhibition at 1 µM (c-kit)	inhibition at 0.1 µM (PDGF-Ra)
CCCOC(=O)Nc1ccc(Oc2ncnc3cc(OC)c(OC)cc23)cc1 [Example 314, Propyl N-{4-[(6,7-dimethoxy-4-quinazolinyl)oxy]phenyl}carbamate]	44 nM	32 nM		
COc1ccccc1COC(=O)Nc1ccc(Oc2ncnc3cc(OC)c(OC)cc23)cc1Cl [Example 316, 2-Methoxybenzyl N-{2-chloro-4-[(6,7-dimethoxy-4-quinazolinyl)oxy]phenyl}carbamate]	10 nM		40%	
COc1cc2ncnc(Oc3ccc(NC(=O)OCc4ccccc4Cl)c(Cl)c3)c2cc1OC [Example 318, 2-Chlorobenzyl N-{2-chloro-4-[(6,7-dimethoxy-4-quinazolinyl)oxy]phenyl}carbamate]	10 nM	418 nM		
COc1cc2nccc(Oc3ccc(NC(=O)OC(C)C)cc3)c2cc1OC [Example 324, Isopropyl N-{4-[(6,7-dimethoxy-4-quinolyl)oxy]phenyl}carbamate]	12 nM	64 nM		
CCCCCCCCCCCCCCCCCCOC(=O)Nc1ccc(Oc2ccnc3cc(OC)c(OC)cc23)cc1 [Example 326, Octadecyl N-{4-[(6,7-dimethoxy-4-quinolyl)oxy]phenyl}carbamate]	> 100 nM		18%	31%
CCCCCCCCCCCCCCCCCCOC(=O)Nc1cc(C)c(Oc2ccnc3cc(OC)c(OC)cc23)cc1C [Example 327, Octadecyl N-{4-[(6,7-dimethoxy-4-quinolyl)oxy]-2,5-dimethylphenyl}carbamate]	> 100 nM		6%	30%
CCCCCCCCCCCCCCCCCCOC(=O)Nc1ccc(Oc2ccnc3cc(OC)c(OC)cc23)c(C)c1C [Example 328, Octadecyl N-{4-[(6,7-dimethoxy-4-quinolyl)oxy]-2,3-dimethylphenyl}carbamate]	> 100 nM		10%	22%
CCCCC(CC)OC(=O)Nc1cc(C)c(Oc2ccnc3cc(OC)c(OC)cc23)cc1C (centres unmarked) [Example 330, 1-Ethylpentyl N-{4-[(6,7-dimethoxy-4-quinolyl)oxy]-2,5-dimethylphenyl}carbamate]	12 nM	467 nM		
CCCCC(CC)OC(=O)Nc1ccc(Oc2ccnc3cc(OC)c(OC)cc23)c(C)c1C (centres unmarked) [Example 331, 1-Ethylpentyl N-{4-[(6,7-dimethoxy-4-quinolyl)oxy]-2,3-dimethylphenyl}carbamate]	< 10 nM	377 nM		
CCCC(CCC)OC(=O)Nc1ccc(Oc2ccnc3cc(OC)c(OC)cc23)cc1 [Example 332, 1-Propylbutyl N-{4-[(6,7-dimethoxy-4-quinolyl)oxy]phenyl}carbamate]	< 10 nM	259 nM		
CCCC(CCC)OC(=O)Nc1cc(C)c(Oc2ccnc3cc(OC)c(OC)cc23)cc1C [Example 333, 1-Propylbutyl N-{4-[(6,7-dimethoxy-4-quinolyl)oxy]-2,5-dimethylphenyl}carbamate]	12 nM	712 nM		
CCCC(CCC)OC(=O)Nc1ccc(Oc2ccnc3cc(OC)c(OC)cc23)c(C)c1C [Example 334, 1-Propylbutyl N-{4-[(6,7-dimethoxy-4-quinolyl)oxy]-2,3-dimethylphenyl}carbamate]	< 10 nM	484 nM		
CCCCCCOC(=O)Nc1ccc(Oc2ncnc3cc(OC)c(OC)cc23)cc1 [Example 335, Hexyl N-{4-[(6,7-dimethoxy-4-quinazolinyl)oxy]phenyl}carbamate]	< 10 nM	< 30 nM		
CCCCCCOC(=O)Nc1ccc(Oc2ncnc3cc(OC)c(OC)cc23)cc1Cl [Example 336, Hexyl N-{2-chloro-4-[(6,7-dimethoxy-4-quinazolinyl)oxy]phenyl}carbamate]	14 nM	109 nM		
CCCC(CC)OC(=O)Nc1ccc(Oc2ncnc3cc(OC)c(OC)cc23)cc1 (centres unmarked) [Example 337, 1-Ethylbutyl N-{4-[(6,7-dimethoxy-4-quinazolinyl)oxy]phenyl}carbamate]	< 10 nM	198 nM		
CCCC(CC)OC(=O)Nc1ccc(Oc2ncnc3cc(OC)c(OC)cc23)cc1Cl (centres unmarked) [Example 338, 1-Ethylbutyl N-{2-chloro-4-[(6,7-dimethoxy-4-quinazolinyl)oxy]phenyl}carbamate]	25 nM	956 nM		
COc1cc2ncnc(Oc3ccc(NC(=O)OCCc4ccccc4)c(Cl)c3)c2cc1OC [Example 339, Phenethyl N-{2-chloro-4-[(6,7-dimethoxy-4-quinazolinyl)oxy]phenyl}carbamate]	38 nM	197 nM		
COc1cc2ncnc(Oc3ccc(NC(=O)OCC4CCCCC4)cc3)c2cc1OC [Example 340, Cyclohexylmethyl N-{4-[(6,7-dimethoxy-4-quinazolinyl)oxy]phenyl}carbamate]	< 10 nM	107 nM		

The remaining lines, values ahead:

IC50 (PDGF-Ra)	IC50 (c-kit)	inhibition at 1 µM (c-kit)	inhibition at 0.1 µM (PDGF-Ra)	Compound
< 10 nM	330 nM			COc1cc2ncnc(Oc3ccc(NC(=O)OC4CCCCC4)c(Cl)c3)c2cc1OC [Example 313]
< 10 nM	82 nM			COc1ccccc1COC(=O)Nc1ccc(Oc2ncnc3cc(OC)c(OC)cc23)cc1 [Example 315, 2-Methoxybenzyl N-{4-[(6,7-dimethoxy-4-quinazolinyl)oxy]phenyl}carbamate]
< 10 nM	136 nM			COc1cc2ncnc(Oc3ccc(NC(=O)OCc4ccccc4Cl)cc3)c2cc1OC [Example 317, 2-Chlorobenzyl N-{4-[(6,7-dimethoxy-4-quinazolinyl)oxy]phenyl}carbamate]
< 10 nM	98 nM			COc1cc2ncnc(Oc3ccc(NC(=O)OCc4ccccc4C)cc3)c2cc1OC [Example 319, 2-Methylbenzyl N-{4-[(6,7-dimethoxy-4-quinazolinyl)oxy]phenyl}carbamate]
< 10 nM	596 nM			COc1cc2ncnc(Oc3ccc(NC(=O)OCc4ccccc4C)c(Cl)c3)c2cc1OC [Example 320, 2-Methylbenzyl N-{2-chloro-4-[(6,7-dimethoxy-4-quinazolinyl)oxy]phenyl}carbamate]
< 10 nM	37 nM			CCCCOC(=O)Nc1ccc(Oc2ccnc3cc(OC)c(OC)cc23)cc1 [Example 321, Butyl N-{4-[(6,7-dimethoxy-4-quinolyl)oxy]phenyl}carbamate]
< 10 nM	60 nM			CCCCOC(=O)Nc1cc(C)c(Oc2ccnc3cc(OC)c(OC)cc23)cc1C [Example 322, Butyl N-{4-[(6,7-dimethoxy-4-quinolyl)oxy]-2,5-dimethylphenyl}carbamate]
< 10 nM	< 30 nM			CCCCOC(=O)Nc1ccc(Oc2ccnc3cc(OC)c(OC)cc23)c(C)c1C [Example 323, Butyl N-{4-[(6,7-dimethoxy-4-quinolyl)oxy]-2,3-dimethylphenyl}carbamate]
< 10 nM	46 nM			COc1cc2nccc(Oc3ccc(NC(=O)OC(C)C)c(C)c3C)c2cc1OC [Example 325, Isopropyl N-{4-[(6,7-dimethoxy-4-quinolyl)oxy]-2,3-dimethylphenyl}carbamate]
< 10 nM	253 nM			CCCCC(CC)OC(=O)Nc1ccc(Oc2ccnc3cc(OC)c(OC)cc23)cc1 (centres unmarked) [Example 329, 1-Ethylpentyl N-{4-[(6,7-dimethoxy-4-quinolyl)oxy]phenyl}carbamate]
